Results from US9765056B2, “Indole and pyrrole compounds, a process for their preparation and pharmaceutical compositions containing them” (LES LABORATOIRES SERVIER, priority 2013, dated 2017).
Counter-ions that a name gives are not always drawn.

Legend:
[1] = tested on: RS4;11 leukaemia tumour line; experiment: In vitro cytotoxicity, Microculture Tetrazolium Assay (MTT); format: cell-based; settings: Homo sapiens; RS4;11 cells, 48 hours exposure
Protocol: The cytotoxicity studies were carried out on the RS4;11 leukaemia tumour line.
The cells are distributed onto microplates and exposed to the test compounds for 48 hours. The cell viability is then quantified by a colorimetric assay, the Microculture Tetrazolium Assay (Cancer Res., 1987, 47, 939-942).

Bcl-2 protein = Bcl-2 protein (histag-Bcl-2, UniProtKB P10415) (Homo sapiens (Human), UniProt P10415); experiment: Inhibition of Bcl-2 by the fluorescence polarisation technique; format: binding; settings: fluorescence polarisation test; method A, or method B where underlined (underlining not visible); read-out: IC50 (nM) Bcl-2 FP
Bcl-2 protein, sequence (P10415 whole entry): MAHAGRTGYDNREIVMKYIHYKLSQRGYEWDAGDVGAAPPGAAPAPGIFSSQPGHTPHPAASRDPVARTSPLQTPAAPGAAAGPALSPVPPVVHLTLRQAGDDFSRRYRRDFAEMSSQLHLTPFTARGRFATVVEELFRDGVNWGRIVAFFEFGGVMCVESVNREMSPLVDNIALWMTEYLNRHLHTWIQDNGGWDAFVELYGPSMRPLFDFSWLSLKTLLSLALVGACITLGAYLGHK
Excerpt: Inhibition of Bcl-2 by the fluorescence polarisation technique

Row | IC50 (Bcl-2 protein) | SMILES | IC50 [1]
1 | 7.2 nM | CN1CCN(C[C@@H]2Cc3ccccc3CN2C(=O)c2cc3c(cc2-n2cc(C(=O)N(c4ccc(O)cc4)c4ccc5sccc5c4)c4ccccc42)OCO3)CC1 [Example 43, N-(1-Benzothiophen-5-yl)-N-(4-hydroxyphenyl)-1-(6-{[(3S)-3-[(4-methylpiperazin-1-yl)methyl]-3,4-dihydroisoquinolin-2(1H)-yl]carbonyl}-1,3-benzodioxol-5-yl)-1H-indole-3-carboxamide] | 101 nM
2 | 3.9 nM | CN1CCN(C[C@@H]2Cc3ccccc3CN2C(=O)c2ccc(Cl)cc2-n2cc(C(=O)N(c3ccc(O)cc3)c3ccc(O)cc3)c3ccccc32)CC1 [Example 73, 1-(5-Chloro-2-{[(3S)-3-[(4-methylpiperazin-1-yl)methyl]-3,4-dihydroisoquinolin-2(1H)-yl]carbonyl}phenyl)-N,N-bis(4-hydroxyphenyl)-1H-indole-3-carboxamide] | 51.4 nM
3 | 22.5 nM | COc1ccc(C(=O)N2Cc3ccccc3C[C@H]2CN)c(-n2cc(C(=O)N(c3ccccc3)c3ccccc3)c3ccccc32)c1 [Example 147, 1-{2-[(3S)-3-(Aminomethyl)-1,2,3,4-tetrahydroisoquinoline-2-carbonyl]-5-methoxyphenyl}-N,N-diphenyl-1H-indole-3-carboxamide] | 966 nM
4 | 120 nM | Cc1cc(C(=O)N(c2ccccc2)c2ccc(O)cc2)cn1-c1cc(C(F)(F)F)ccc1C(=O)N1Cc2ccccc2C[C@H]1CN(C)C [Example 12, 1-[2-{[(3S)-3-[(Dimethylamino)methyl]-3,4-dihydroisoquinolin-2(1H)-yl]carbonyl}-5-(trifluoromethyl)phenyl]-N-(4-hydroxyphenyl)-5-methyl-N-phenyl-1H-pyrrole-3-carboxamide] | 1810 nM
5 | 21.6 nM | COc1cc(-n2cc(C(=O)N(c3ccccc3)C3CCCCC3)c3ccccc32)c(C(=O)N2Cc3ccccc3C[C@H]2CN2CCN(C)CC2)cc1O [Example 187, N-Cyclohexyl-1-{4-hydroxy-5-methoxy-2-[(3S)-3-[(4-methylpiperazin-1-yl)methyl]-1,2,3,4-tetrahydroisoquinoline-2-carbonyl}phenyl]-N-phenyl-1H-indole-3-carboxamide dihydrochloride] | 1990 nM
6 | 53.3 nM | NC[C@@H]1Cc2ccccc2CN1C(=O)c1ccccc1-n1nc(C(=O)N(c2ccccc2)c2ccccc2)c2ccccc21 [Example 122, 1-{2-[(3S)-3-(Aminomethyl)-1,2,3,4-tetrahydroisoquinoline-2-carbonyl]phenyl}-N,N-diphenyl-1H-indazole-3-carboxamide] | 2290 nM
7 | 17.2 nM | COc1ccc(C(=O)N2Cc3ccccc3C[C@H]2CN)c(-n2cc(C(=O)N(c3ccccc3)c3ccc(O)cc3)c3ccccc32)c1 [Example 146, 1-{2-[(3S)-3-(Aminomethyl)-1,2,3,4-tetrahydroisoquinoline-2-carbonyl]-5-methoxyphenyl}-N-(4-hydroxyphenyl)-N-phenyl-1H-indole-3-carboxamide] | 346 nM
8 | 168 nM | Cc1ccc(N(C(=O)c2cn(-c3cc4c(cc3C(=O)N3Cc5ccccc5C[C@H]3CN3CCN(C)CC3)OCO4)c3ccccc23)c2ccc(O)c(Cl)c2)cc1 [Example 63, N-(3-Chloro-4-hydroxyphenyl)-N-(4-methylphenyl)-1-(6-{[(3S)-3-[(4-methylpiperazin-1-yl)methyl]-3,4-dihydroisoquinolin-2(1H)-yl]carbonyl}-1,3-benzodioxol-5-yl)-1H-indole-3-carboxamide hydrochloride] | 1510 nM
9 | 74.3 nM | Cc1cc(C(=O)N(c2ccccc2)c2ccc(O)cc2)cn1-c1cc(F)c(F)cc1C(=O)N1Cc2ccccc2C[C@H]1CN1CCN(C)CC1 [Example 20, 1-(4,5-Difluoro-2-{[(3S)-3-[(4-methylpiperazin-1-yl)methyl]-3,4-dihydroisoquinolin-2(1H)-yl]carbonyl}phenyl)-N-(4-hydroxyphenyl)-5-methyl-N-phenyl-1H-pyrrole-3-carboxamide] | 900 nM
10 | 16.2 nM | Cc1cc(C(=O)N(c2ccccc2)c2ccc(O)cc2)cn1-c1cc(Cl)ccc1C(=O)N1Cc2ccccc2C[C@H]1CN(C)C [Example 13, 1-(5-Chloro-2-{[(3S)-3-[(dimethylamino)methyl]-3,4-dihydroisoquinolin-2(1H)-yl]carbonyl}phenyl)-N-(4-hydroxyphenyl)-5-methyl-N-phenyl-1H-pyrrole-3-carboxamide] | 462 nM
11 | 56.7 nM | CN(C)c1ccc(-n2nc(C(=O)N(c3ccccc3)c3ccccc3)c3ccccc32)c(C(=O)N2Cc3ccccc3C[C@H]2CN)c1 [Example 141, 1-{2-[(3S)-3-(Aminomethyl)-1,2,3,4-tetrahydroisoquinoline-2-carbonyl]-4-(dimethylamino)phenyl}-N,N-diphenyl-1H-indazole-3-carboxamide] | 2280 nM
12 | 6.8 nM | Cc1cc(C(=O)N(c2ccc(O)cc2)c2ccc3[nH]ccc3c2)cn1-c1cc(Br)ccc1C(=O)N1Cc2ccccc2C[C@H]1CN1CCN(C2CCCC2)CC1 [Example 80, 1-(5-Bromo-2-{[(3S)-3-[(4-cyclopentylpiperazin-1-yl)methyl]-3,4-dihydroisoquinolin-2(1H)-yl]carbonyl}phenyl)-N-(4-hydroxyphenyl)-N-(1H-indol-5-yl)-5-methyl-1H-pyrrole-3-carboxamide] | 120 nM
13 | 6.9 nM | CN1CCN(C[C@@H]2Cc3ccccc3CN2C(=O)c2cc3c(cc2-n2cc(C(=O)N(c4ccc(O)cc4)c4ccc(OC(F)(F)F)cc4)c4ccccc42)OCO3)CC1 [Example 51, N-(4-Hydroxyphenyl)-1-(6-{[(3S)-3-[(4-methylpiperazin-1-yl)methyl]-3,4-dihydroisoquinolin-2(1H)-yl]carbonyl}-1,3-benzodioxol-5-yl)-N-[4-(trifluoro-methoxy)phenyl]-1H-indole-3-carboxamide] | 155 nM
14 | 16.1 nM | NC[C@@H]1Cc2ccccc2CN1C(=O)c1cc(NC(=O)CSc2ccccc2)ccc1-n1cc(C(=O)N(c2ccccc2)c2ccc(O)cc2)c2ccccc21 [Example 157, 1-{2-[(3S)-3-(Aminomethyl)-1,2,3,4-tetrahydroisoquinoline-2-carbonyl]-4-[2-(phenylsulphanyl)acetamido]phenyl}-N-(4-hydroxyphenyl)-N-phenyl-1H-indole-3-carboxamide] | 487 nM
15 | 85.5 nM | Cc1cc(C(=O)N(c2ccc(O)cc2)c2ccc3[nH]ccc3c2)cn1-c1cc(Br)ccc1C(=O)N1Cc2ccccc2C[C@H]1CN1CCC(F)(F)CC1 [Example 79, 1-(5-Bromo-2-{[(3S)-3-[(4,4-difluoropiperidin-1-yl)methyl]-3,4-dihydroisoquinolin-2(1H)-yl]carbonyl}phenyl)-N-(4-hydroxyphenyl)-N-(1H-indol-5-yl)-5-methyl-1H-pyrrole-3-carboxamide] | 344 nM
16 | 6.4 nM | Cc1cc(C(=O)N(c2ccc(O)cc2)c2ccc3c(ccn3C)c2)cn1-c1cc(Cl)ccc1C(=O)N1Cc2ccccc2C[C@H]1CN(C)C [Example 95, 1-(5-Chloro-2-{[(3S)-3-[(dimethylamino)methyl]-3,4-dihydroisoquinolin-2(1H)-yl]carbonyl}phenyl)-N-(4-hydroxyphenyl)-5-methyl-N-(1-methyl-1H-indol-5-yl)-1H-pyrrole-3-carboxamide hydrochloride] | 264 nM
